We go through 21 compounds from patent US20040204455A1, “Piperidine derivative rennin inhibitors” (priority 2003, published 2004).

This assay deals with T1, human renin (Homo sapiens, UniProt P00797).
T1 sequence (P00797 67-406): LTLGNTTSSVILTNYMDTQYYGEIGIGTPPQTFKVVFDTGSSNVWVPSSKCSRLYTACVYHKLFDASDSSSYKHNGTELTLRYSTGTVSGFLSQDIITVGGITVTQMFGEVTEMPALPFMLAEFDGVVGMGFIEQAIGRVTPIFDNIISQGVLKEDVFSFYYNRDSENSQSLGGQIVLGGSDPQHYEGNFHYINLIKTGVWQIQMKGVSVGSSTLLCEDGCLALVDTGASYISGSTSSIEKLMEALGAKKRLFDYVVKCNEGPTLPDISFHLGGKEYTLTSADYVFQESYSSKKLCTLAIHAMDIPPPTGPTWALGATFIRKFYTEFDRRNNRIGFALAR
Briefly: Determination of Renin IC50 by tGFP FRET Assay. In kind it is biochemical. The following applies: Human recombinant renin, tandem GFP substrate 650 nM, renin and compound incubated 60 minutes before substrate, pH 7.4. From the text: Determination of Renin IC50 by tGFP FRET Assay
The tGFP FRET (Green Fluorescent Protein Fluorescence Resonance Energy Transfer) assay utilizes a tandem GFP substrate (60 kDa) containing nine amino acid recognition sequences for human renin flanked by two GFP proteins. The assay is used to determine the ability of a compound to act as an inhibitor of renin enzymatic activity by determination of that concentration of test compound that inhibits by 50% (IC50) the ability of renin to cleave the tandem GFP substrate. The IC50 values are determined over an 11-point curve at concentrations of 100 μM to […]. Each compound concentration used to construct the curve was dependent on renin inhibitor potency. For example, subnanomolar IC50 values were determined over an 11-point curve at concentrations of 10 μM to […]. All other IC50 values were determined over an 11-point curve at concentrations of 100 μM to 0.0065 μM. The concentrations were achieved by diluting a 9.1 nM stock of Human recombinant renin in the appropriate amount of buffer containing 50 mM HEPES, 1 mM EDTA, 1% PEG (8000 MW), 1 mM DTT, 0.1% BSA, pH 7.4 to achieve the final concentration of 50.4 μIU. The tGFP substrate stock solution of 43 μM was diluted with the appropriate amount of the above buffer to obtain the final concentration of 650 nM. In addition, 1 μl of the compound is diluted in DSMO to represent an […] log scale (5% final). The renin and compound are added to a 384 capacity plate by an automated robot (BIOMEK). The plate is incubated for 60 minutes; upon completion the tGFP substrate is added.
The IC50 is determined by monitoring the increase in […] at 432/432 nm excitation, 530/475 nm emission with a cutoff at 515/455 nm, in a fluorometric plate reader.

Structures are written as SMILES.

For orientation: IC50 means the midpoint of a concentration-inhibition curve. As for `O=C1CCC(=O)N1CCOc1cccc(CN[C@H]2CNCC[C@H]2c2ccc(OCCCOCc3ccccc3F)cc2)c1` (racemic) [1-(2-{3-[(4-{4-[3-(2-Fluoro-benzyloxy)-propoxy]-phenyl}-piperidin-3-ylamino)-methyl]-phenoxy}-ethyl)-pyrrolidine-2,5-dione], the IC50 is 1.4 µM.
Regarding `O=C1CCCN1CCOc1cccc(CN[C@H]2CNCC[C@H]2c2ccc(OCCCOCc3ccccc3F)cc2)c1` (racemic) [1-(2-{3-[(4-{4-[3-(2-Fluoro-benzyloxy)-propoxy]-phenyl}-piperidin-3-ylamino)-methyl]-phenoxy}-ethyl)-pyrrolidine-2-one], the IC50 turned out to be 0.932 µM.
To `COC(=O)c1cccc(CN[C@@H]2CNCC[C@@H]2c2ccc(OCCCOCc3ccccc3F)cc2)n1` (racemic) [6-[(4-{4-[3-(2-Fluoro-benzyloxy)-propoxy]-phenyl}-piperidin-3-ylamino)-methyl]-pyridine-2-carboxylic acid methyl ester] belongs 6.98 µM.
To `COc1ccccc1COCCCOc1ccc([C@H]2CCNC[C@H]2NCc2ccc3cc(O)ccc3c2)cc1` (racemic) [6-[(4-{4-[3-(2-methoxy-benzyloxy)-propoxy]-phenyl}-piperidin-3-ylamino)-methyl]-naphthalen-2-ol] belongs > 1 µM; to `COc1ccccc1COCCCOc1ccc([C@H]2CCNC[C@H]2NCc2ccc3[nH]ccc3c2)cc1` (racemic) [(1H-indol-5-ylmethyl)-(4-{4-[3-(2-methoxy-benzyloxy)-propoxy]-phenyl}-piperidin-3-yl)-amine], > 1 µM.
On to `Fc1ccccc1COCCCOc1ccc([C@@H]2CCNC[C@@H]2NCc2ccc(F)c(C(F)(F)F)c2)cc1` (racemic) [(4-{4-[3-(2-fluoro-benzyloxy)-propoxy]-phenyl}-piperidin-3-yl)-(4-fluoro-3-trifluoromethyl-benzyl)-amine], for which the IC50 amounted to 0.454 µM.
To `COc1ccccc1COCCCOc1ccc([C@H]2CCNC[C@H]2NCc2ccc3c(c2)NCCC3)cc1` (racemic) [(4-{4-[3-(2-methoxy-benzyloxy)-propoxy]-phenyl}-piperidin-3-yl)-(1,2,3,4-tetrahydro-quinolin-7-ylmethyl)-amine] belongs 0.226 µM; to `COc1ccc2cc(CN[C@@H]3CNCC[C@@H]3c3ccc(OCCCOCc4ccccc4OC)cc3)ccc2c1` (racemic) [(4-{4-[3-(2-methoxy-benzyloxy)-propoxy]-phenyl}-piperidin-3-yl)-(6-methoxy-naphthalen-2-ylmethyl)-amine], 0.0743 µM.
With `COc1ccccc1COCCCOc1ccc([C@H]2CCNC[C@H]2N(C)Cc2ccc3ccccc3c2)cc1` (racemic) [(4-{4-[3-(2-methoxy-benzyloxy)-propoxy]-phenyl}-piperidin-3-yl)-methyl-naphthalen-2-ylmethyl-amine], the concentration for half-maximal inhibition (IC50) is 0.573 µM.
As to `COc1ccccc1COCCCOc1ccc([C@H]2CCNC[C@H]2NCc2ccc3ccccc3c2)cc1` (racemic) [(4-{4-[3-(2-methoxy-benzyloxy)-propoxy]-phenyl}-piperidin-3-yl)-naphthalen-2-ylmethyl-amine], the IC50 amounted to 0.087 µM.
In the case of `COc1ccccc1COCCCOc1ccc([C@H]2CCNC[C@H]2NCc2ccc3cccnc3c2)cc1` (racemic) [(4-{4-[3-(2-methoxy-benzyloxy)-propoxy]-phenyl}-piperidin-3-yl)-quinolin-7-ylmethyl-amine], the IC50 was found to be 0.175 µM.
For `O=S(=O)(N[C@@H]1CNCC[C@@H]1c1ccc(OCCCOCc2ccccc2F)cc1)c1ccc2ccccc2c1` (racemic) [Naphthalene-2-sulfonic acid (4-{4-[3-(2-fluoro-benzyloxy)-propoxy]-phenyl}-piperidin-3-yl)-amide], the 50% inhibitory concentration (IC50) is 0.693 µM.
For `COc1ccccc1COCCCOc1ccc([C@H]2CCNC[C@H]2NCc2ccc3c(c2)N(CCN(C)C)CCC3)cc1` (racemic) [[1-(2-dimethylamino-ethyl)-1,2,3,4-tetrahydro-quinolin-7-ylmethyl]-(4-{4-[3-(2-methoxybenzyloxy)-propoxy]-phenyl}-piperidin-3-yl)-amine], the IC50 was > 1 µM.
Take `COc1ccccc1COCCCOc1ccc([C@H]2CCNC[C@H]2NCc2ccc3occc3c2)cc1` (racemic) [benzofuran-5-ylmethyl-(4-{4-[3-(2-methoxy-benzyloxy)-propoxy]-phenyl}-piperidin-3-yl)-amine]: the IC50 was 0.393 µM.
To `COc1ccccc1COCCCOc1ccc([C@H]2CCNC[C@H]2NC(=O)c2cccc3ccccc23)cc1` (racemic) [naphthalene-1-carboxylic acid (4-{4-[3-(2-methoxy-benzyloxy)-propoxy]-phenyl}-piperidin-3-yl)-amide] belongs > 1 µM; to `COC(=O)COc1cccc(CN[C@H]2CNCC[C@H]2c2ccc(OCCCOCc3ccccc3F)cc2)c1` (racemic) [{3-[(4-{4-[3-(2-Fluoro-benzyloxy)-propoxy]-phenyl}-piperidin-3-ylamino)-methyl]-phenoxy}-acetic acid methyl ester], 0.924 µM; to `COC(=O)c1cccc2cc(CN[C@@H]3CNCC[C@@H]3c3ccc(OCCCOCc4ccccc4OC)cc3)ccc12` [6-[(4-[3-(2-methoxy-benzyloxy)-propoxyl]-phenyl}-piperidin-3-ylamino)-methyl]-naphthalene-1-carboxylic acid methyl ester], 0.282 µM.
To `COc1ccccc1COCCCOc1ccc([C@H]2CCNC[C@H]2NCc2ccc3c(C(=O)O)cccc3c2)cc1` [6-[(4-[4-(2-methoxy-benzyloxy)-propoxyl]-phenyl}-piperidin-3-ylamino)-methyl]-naphthalene-1-carboxylic acid] belongs 2.6 µM; to `COC(=O)c1ccc2cc(CN[C@@H]3CNCC[C@@H]3c3ccc(OCCCOCc4ccccc4F)cc3)ccc2c1` [6-[(4-{4-[3-(2-Fluoro-benyloxy)-propoxy]-phenyl}-piperidin-3-ylamino)-methyl]-naphthalene-2-carboxylic acid methyl ester], 0.877 µM; to `O=C(O)c1ccc2cc(CN[C@@H]3CNCC[C@@H]3c3ccc(OCCCOCc4ccccc4F)cc3)ccc2c1` [6-[(4-{4-[3-(2-Fluoro-benyloxy)-propoxy]-phenyl}-piperidin-3-ylamino)-methyl]-naphthalene-2-carboxylic acid], > 1 µM.
To `COC(=O)c1ccc2cc(CN[C@@H]3CNCC[C@@H]3c3ccc(OCCCOCc4ccccc4OC)cc3)ccc2c1` [6-[(4-{4-[3-(2-Methoxy-benyloxy)-propoxy]-phenyl}-piperidin-3-ylamino)-methyl]-naphthalene-2-carboxylic acid methyl ester] belongs 0.329 µM.
